The values that follow come from patent US8084399B2, “Process for screening of a binding amphiphilic peptides specific for hairpin RNA” (priority 2009, dated 2011).

Where no end group is shown, it is not given here. [ ]: non-standard residue; d: D form. Orn = NCCC[C@H](N)C(=O)O; Dab = NCC[C@H](N)C(=O)O; Dap = NC[C@H](N)C(=O)O

One data set addresses RRE hairpin RNA. Description: Fluorescence anisotropy competition with Rev-N-rhodamine probe, binding to RRE hairpin RNA. More on the design: species or system HIV. The conditions noted are these: 20° C., pH 7.4, read-out: Dissociation constant, RRE. The protocol: (§1) Binding force to each target hairpin RNA (IRES, RRE, TAR and 16S A-site) was measured by fluorescence polarization using alanine scanned peptide library (1b-1h).
(§2) Particularly, […] of each target RNA was prepared at the concentration of 10 mM, which stood at 65° C. for 10 minutes and then cooled down slowly at room temperature, leading to folding. The amphiphilic peptide was prepared respectively at the concentration of […], which were maintained at 0° C. As a probe, rev peptide labeled with rhodamine (Rev-N-rhodamine) emitting […] fluorescence was prepared at the concentration of 10 mM. Buffer was composed of 140 mM NaCl, 5 mM KCl, 1 mM MgCl2, and 20 mM HEPES (N-2-Hydroxyethylpiperazine-N′-2-Ethanesulfonic Acid, pH 7.4). Fluorescence Anisotropy was measured using AMINCO-Bowman Series Luminescence Spectrometer at 20° C. Ten nM of the probe was added in […] of buffer, to which target RNA was added to induce interaction between the probe and the target RNA. At that time, anisotropy value increased. Then, the synthesized peptide competing with the probe for binding site was added thereto with increasing the concentration slowly. Changes of fluorescence polarization were measured until fluorescence polarization reached as low as the beginning. Considering the concentration and amount of the peptide added, binding force to target RNA was calculated. That is, the binding strength between target RNA and peptide was determined according to the following KaleidaGraph. [Peptide]=Kd(Amax−A)/[Kd(A−A0)+1]×[RNA]−Kd(A−A0)^2[Probe]0/(Amax−A)(Amax−A0)
(§3) Herein, [Peptide] indicates the concentration of peptide, [RNA] indicates the concentration of target RNA, and [Probe]0 indicates the concentration of probe. A is the value of fluorescence anisotropy of sample, Amax is the value of totally bound tracer, and A0 is the value of totally free tracer.
A general note: Polarisation of emitted light reports the rotation of a fluorescent probe.

The target in the next data set is TAR hairpin RNA. Description: Fluorescence anisotropy competition with Rev-N-rhodamine probe, binding to TAR hairpin RNA. The arrangement: species or system HIV. The settings on record: fluorescence anisotropy, 20° C., pH 7.4; read-out: Dissociation constant, TAR. The method, then:
as §1, §2, §3

The next data set concerns the target 16S ribosomal RNA A-site. The data set can be described thus: Fluorescence anisotropy competition with Rev-N-rhodamine probe, binding to 16S A-site. The conditions noted are these: 20° C., pH 7.4, read-out: Dissociation constant, 16S A-site. The method, then: as §1, §2, §3
For the next data set, the system named is IRES domain IV hairpin. The data set can be described thus: Fluorescence anisotropy competition with Rev-N-rhodamine probe, binding to IRES hairpin. More on the design: species or system HCV. The settings on record: for differentiation coefficient (IRES): (mean Kd to other hairpin RNA)/(Kd to one hairpin RNA); for Kd: fluorescence anisotropy, 20° C., pH 7.4, read-out: Dissociation constant, IRES. The method, then:
as §1, §2, §3

A short description of data set [1]: Circular dichroism (CD), percentage of alpha-helix. In kind it is physicochemical. The conditions noted are these: CD at 20° C., condition not given; for Alpha-helical rate (%), second value of pair: value after the slash; for Alpha-helical rate (%), first value of pair: value before the slash. The method, then:
To investigate alpha-helix of the amphiphilic peptide (1a-1h), circular dichroism (CD) was performed. Particularly, CD was measured at 20° C. by using JASCO model J715 spectropolarimeter. Scanning was performed at 190-250 nm three times (bandwidth: 1 nm, datapitch: 0.5 nm, speed: 100 nm/min), which were averaged to obtain CD data. Spectrum was corrected by measuring background spectrum. CD signal was recorded after modulating thereof with mean residue ellipticity [Q]. Percentage (%) of alpha-helix(fn) was calculated by the following formula. [Q]=Qobs[MRW/(10lc)]
MRW=mean residue weight (dividing molecular weight by the number of peptide bond, l=pathway length (cm), c=concentration (mg/mL). fn=([Q]222−[Q]coil)/([Q]helix−[Q]coil) [Q]helix=−40,000[…]+100t [Q]coil=640−45t
[Q]222=mean residue ellipticity at 222 nm (deg cm2 mol-1), [Q]helix=ellipticity of peptide having complete helical structure, [Q]coil=ellipticity of peptide having complete random coil structure, n=number of amino acid, t=° C.

For “LKKLLKLLKKLLOrnLAG (LKKLLKLLKKLL[Orn]LAG-NH2; N-terminus assumed; SMILES CC(C)C[C@H](NC(=O)[C@H](CCCN)NC(=O)[C@H](CC(C)C)NC(=O)[C@H](CC(C)C)NC(=O)[C@H](CCCCN)NC(=O)[C@H](CCCCN)NC(=O)[C@H](CC(C)C)NC(=O)[C@H](CC(C)C)NC(=O)[C@H](CCCCN)NC(=O)[C@H](CC(C)C)NC(=O)[C@H](CC(C)C)NC(=O)[C@H](CCCCN)NC(=O)[C@H](CCCCN)NC(=O)[C@@H](N)CC(C)C)C(=O)N[C@@H](C)C(=O)NCC(N)=O) [2g, second generation peptide, hydrophilic face modified]”, the Kd at RRE hairpin RNA was found to be 11 nM; at TAR hairpin RNA, 9 nM; on 16S ribosomal RNA A-site, 23 nM; on IRES domain IV hairpin it was 4.4 nM. Also, the “differentiation coefficient (IRES)” value with IRES domain IV hairpin is recorded as 3.3. Also, the “Alpha-helical rate (%), second value of pair” value in data set [1] amounted to 53%. Further, the “Alpha-helical rate (%), first value of pair” value in data set [1] was 36%.
Take “LKKLLOrnLLKKLLKLAG (LKKLL[Orn]LLKKLLKLAG-NH2; N-terminus assumed; SMILES CC(C)C[C@H](NC(=O)[C@H](CCCCN)NC(=O)[C@H](CC(C)C)NC(=O)[C@H](CC(C)C)NC(=O)[C@H](CCCCN)NC(=O)[C@H](CCCCN)NC(=O)[C@H](CC(C)C)NC(=O)[C@H](CC(C)C)NC(=O)[C@H](CCCN)NC(=O)[C@H](CC(C)C)NC(=O)[C@H](CC(C)C)NC(=O)[C@H](CCCCN)NC(=O)[C@H](CCCCN)NC(=O)[C@@H](N)CC(C)C)C(=O)N[C@@H](C)C(=O)NCC(N)=O) [2a, second generation peptide, hydrophilic face modified]”: the Kd at RRE hairpin RNA worked out at 17 nM; at TAR hairpin RNA, 14 nM; on 16S ribosomal RNA A-site, 15 nM; on IRES domain IV hairpin it was 6.1 nM. In the data set with IRES domain IV hairpin, the “differentiation coefficient (IRES)” value came to 2.5. For the same substance, the “Alpha-helical rate (%), second value of pair” value in data set [1] turned out to be 82%. For the same substance, the “Alpha-helical rate (%), first value of pair” value in data set [1] is given as 13%.
Regarding “LKKLLKLLKKLLDapLAG (LKKLLKLLKKLL[Dap]LAG-NH2; N-terminus assumed; SMILES CC(C)C[C@H](NC(=O)[C@H](CN)NC(=O)[C@H](CC(C)C)NC(=O)[C@H](CC(C)C)NC(=O)[C@H](CCCCN)NC(=O)[C@H](CCCCN)NC(=O)[C@H](CC(C)C)NC(=O)[C@H](CC(C)C)NC(=O)[C@H](CCCCN)NC(=O)[C@H](CC(C)C)NC(=O)[C@H](CC(C)C)NC(=O)[C@H](CCCCN)NC(=O)[C@H](CCCCN)NC(=O)[C@@H](N)CC(C)C)C(=O)N[C@@H](C)C(=O)NCC(N)=O) [2i, second generation peptide, hydrophilic face modified]”, the Kd is 23 nM at RRE hairpin RNA, 8.4 nM on TAR hairpin RNA, 20 nM at 16S ribosomal RNA A-site and 1.4 nM at IRES domain IV hairpin. In addition, the “differentiation coefficient (IRES)” value in the data set with IRES domain IV hairpin is reported as 12. Further, the “Alpha-helical rate (%), second value of pair” value in data set [1] stood at 54%. Further, in data set [1], the “Alpha-helical rate (%), first value of pair” value stood at 39%.
For the substance “LKKLLKLLOrnKLLDapWAG (LKKLLKLL[Orn]KLL[Dap]WAG-NH2; N-terminus assumed; SMILES CC(C)C[C@H](NC(=O)[C@H](CC(C)C)NC(=O)[C@H](CCCCN)NC(=O)[C@H](CCCN)NC(=O)[C@H](CC(C)C)NC(=O)[C@H](CC(C)C)NC(=O)[C@H](CCCCN)NC(=O)[C@H](CC(C)C)NC(=O)[C@H](CC(C)C)NC(=O)[C@H](CCCCN)NC(=O)[C@H](CCCCN)NC(=O)[C@@H](N)CC(C)C)C(=O)N[C@@H](CN)C(=O)N[C@@H](Cc1c[nH]c2ccccc12)C(=O)N[C@@H](C)C(=O)NCC(N)=O) [peptide 3h, third generation peptide, both faces modified]”, the Kd at RRE hairpin RNA turned out to be 28 nM; at TAR hairpin RNA it was 15 nM; at 16S ribosomal RNA A-site it was 19 nM; at IRES domain IV hairpin it was 13 nM. Further, the “differentiation coefficient (IRES)” value with IRES domain IV hairpin turned out to be 1.6. The “Alpha-helical rate (%), second value of pair” value in data set [1] worked out at 56%. Moreover, the “Alpha-helical rate (%), first value of pair” value in data set [1] was 12%.
“LKKLLKLLKKLLKLKG [1a, original amphiphilic 16-mer peptide]”: the Kd at RRE hairpin RNA was 22 nM; on TAR hairpin RNA, 66 nM; at 16S ribosomal RNA A-site it was 100 nM; at IRES domain IV hairpin, 45 nM. The “differentiation coefficient (IRES)” value in the data set on IRES domain IV hairpin was 1.4. Further, the “Alpha-helical rate (%), second value of pair” value in data set [1] came out at 57%. Besides, the “Alpha-helical rate (%), first value of pair” value in data set [1] is listed as 26%.
With “LKALLKLLKKLLKLKG [1c, alanine scanned first generation peptide]”, the Kd at RRE hairpin RNA is 56 nM; on TAR hairpin RNA it was 87 nM; on 16S ribosomal RNA A-site, 92 nM; on IRES domain IV hairpin it was 62 nM. The “differentiation coefficient (IRES)” value in the data set with IRES domain IV hairpin is on record as 1.3. Further, the “Alpha-helical rate (%), second value of pair” value in data set [1] is on record as 42%. For the same substance, the “Alpha-helical rate (%), first value of pair” value in data set [1] was determined as 10%.
For the substance “LKKLLDabLLKKLLKLAG (LKKLL[Dab]LLKKLLKLAG-NH2; N-terminus assumed; SMILES CC(C)C[C@H](NC(=O)[C@H](CCCCN)NC(=O)[C@H](CC(C)C)NC(=O)[C@H](CC(C)C)NC(=O)[C@H](CCCCN)NC(=O)[C@H](CCCCN)NC(=O)[C@H](CC(C)C)NC(=O)[C@H](CC(C)C)NC(=O)[C@H](CCN)NC(=O)[C@H](CC(C)C)NC(=O)[C@H](CC(C)C)NC(=O)[C@H](CCCCN)NC(=O)[C@H](CCCCN)NC(=O)[C@@H](N)CC(C)C)C(=O)N[C@@H](C)C(=O)NCC(N)=O) [2b, second generation peptide, hydrophilic face modified]”, the Kd on RRE hairpin RNA amounted to 10 nM; on TAR hairpin RNA, 7.3 nM; on 16S ribosomal RNA A-site it was 13 nM; on IRES domain IV hairpin it was 1.6 nM. Besides, the “differentiation coefficient (IRES)” value in the data set with IRES domain IV hairpin is on record as 6.4. In data set [1], the “Alpha-helical rate (%), second value of pair” value is 63%. Also, the “Alpha-helical rate (%), first value of pair” value in data set [1] was determined as 23%.
Consider “LKKLLKLLOrnKLLKLAG (LKKLLKLL[Orn]KLLKLAG-NH2; N-terminus assumed; SMILES CC(C)C[C@H](NC(=O)[C@H](CCCCN)NC(=O)[C@H](CC(C)C)NC(=O)[C@H](CC(C)C)NC(=O)[C@H](CCCCN)NC(=O)[C@H](CCCN)NC(=O)[C@H](CC(C)C)NC(=O)[C@H](CC(C)C)NC(=O)[C@H](CCCCN)NC(=O)[C@H](CC(C)C)NC(=O)[C@H](CC(C)C)NC(=O)[C@H](CCCCN)NC(=O)[C@H](CCCCN)NC(=O)[C@@H](N)CC(C)C)C(=O)N[C@@H](C)C(=O)NCC(N)=O) [2d, second generation peptide, hydrophilic face modified]”, for which the Kd at RRE hairpin RNA came to 7.6 nM; at TAR hairpin RNA, 9.8 nM; at 16S ribosomal RNA A-site, 18 nM; on IRES domain IV hairpin, 1.3 nM. In the data set with IRES domain IV hairpin, the “differentiation coefficient (IRES)” value was 8.7. Further, in data set [1], the “Alpha-helical rate (%), second value of pair” value stood at 57%. Also, the “Alpha-helical rate (%), first value of pair” value in data set [1] was found to be 28%.
In the case of “LKKLLKWLKKLLDapLAG (LKKLLKWLKKLL[Dap]LAG-NH2; N-terminus assumed; SMILES CC(C)C[C@H](NC(=O)[C@H](CN)NC(=O)[C@H](CC(C)C)NC(=O)[C@H](CC(C)C)NC(=O)[C@H](CCCCN)NC(=O)[C@H](CCCCN)NC(=O)[C@H](CC(C)C)NC(=O)[C@H](Cc1c[nH]c2ccccc12)NC(=O)[C@H](CCCCN)NC(=O)[C@H](CC(C)C)NC(=O)[C@H](CC(C)C)NC(=O)[C@H](CCCCN)NC(=O)[C@H](CCCCN)NC(=O)[C@@H](N)CC(C)C)C(=O)N[C@@H](C)C(=O)NCC(N)=O) [3c, third generation peptide, both faces modified]”, the Kd at RRE hairpin RNA came out at 9.7 nM; on TAR hairpin RNA, 8.3 nM; at 16S ribosomal RNA A-site, 21 nM; on IRES domain IV hairpin, 0.75 nM. In addition, in the data set with IRES domain IV hairpin, the “differentiation coefficient (IRES)” value is on record as 17. Also, the “Alpha-helical rate (%), second value of pair” value in data set [1] was 36%. For the same substance, the “Alpha-helical rate (%), first value of pair” value in data set [1] was determined as 29%.
